Data published in PubChem BioAssay AID248 (DTP/NCI, 2004).
“And” between values parts separate entries of the source, which are not always exact repeats. Equal values may be shown once. Toxic doses and inconclusive results are not listed. Cut-off read from the data, not from the text of the source: active = T/C of 150% or more; inactive = T/C below 125%.

Test system: L1210 leukemia ip in BDF1 mice, survival T/C
Test: NCI In Vivo Anticancer Drug Screen. Data for tumor model L1210 Leukemia (intraperitoneal) in B6D2F1 (BDF1) mice
Conditions: endpoint: mean survival time, higher = longer survival
Method in brief: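 In this screen, tumor-bearing mice given compound are compared to those given vehicle, and their survival values are reported as a treated-to-control quotient.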

[1] = dose: 100.0 mg/kg/injection, schedule: Q04DX003 (ip), vehicle: saline
[2] = dose: 200.0 mg/kg/injection, schedule: Q04DX003 (ip), vehicle: saline
[3] = dose: 50.0 mg/kg/injection, schedule: Q01DX009 (ip), vehicle: Klucel (hydroxypropylcellulose) (HPC)
[4] = dose: 100.0 mg/kg/injection, schedule: Q01DX001 (ip), vehicle: carboxymethylcellulose (CMC)
[5] = dose: 200.0 mg/kg/injection, schedule: Q01DX001 (ip), vehicle: carboxymethylcellulose (CMC)
[6] = dose: 400.0 mg/kg/injection, schedule: Q01DX001 (ip), vehicle: carboxymethylcellulose (CMC)
[7] = dose: 100.0 mg/kg/injection, schedule: Q01DX009 (ip), vehicle: saline with Tween-80
[8] = dose: 200.0 mg/kg/injection, schedule: Q01DX009 (ip), vehicle: saline with Tween-80
[9] = dose: 400.0 mg/kg/injection, schedule: Q01DX009 (ip), vehicle: saline with Tween-80
[10] = dose: 100.0 mg/kg/injection, schedule: Q04DX003 (ip), vehicle: saline with Tween-80
[11] = dose: 200.0 mg/kg/injection, schedule: Q04DX003 (ip), vehicle: saline with Tween-80
[12] = dose: 50.0 mg/kg/injection, schedule: Q01DX001 (ip), vehicle: saline
[13] = dose: 100.0 mg/kg/injection, schedule: Q01DX001 (ip), vehicle: saline
[14] = dose: 100.0 mg/kg/injection, schedule: Q01DX001 (ip), vehicle: saline with Tween-80
[15] = dose: 200.0 mg/kg/injection, schedule: Q01DX001 (ip), vehicle: saline with Tween-80
[16] = dose: 200.0 mg/kg/injection, schedule: Q01DX001 (ip), vehicle: saline
[17] = dose: 400.0 mg/kg/injection, schedule: Q01DX001 (ip), vehicle: saline
[18] = dose: 50.0 mg/kg/injection, schedule: Q01DX009 (ip), vehicle: saline with Tween-80
[19] = dose: 400.0 mg/kg/injection, schedule: Q04DX003 (ip), vehicle: saline with Tween-80

Measured: T/C

Cc1c2ccc3ccccc3c2c(C)[n+]2ccccc12
inactive: dose: 2.0 mg/kg/injection, schedule: Q01DX Z (ip), vehicle: carboxymethylcellulose (CMC) 122 % of control | dose: 4.0 mg/kg/injection, schedule: Q01DX Z (ip), vehicle: carboxymethylcellulose (CMC) 106 % of control | dose: 8.0 mg/kg/injection, schedule: Q01DX Z (ip), vehicle: carboxymethylcellulose (CMC) 93 % of control

N#CC(C#N)=Cc1ccc2c(c1)CCC2
inactive: dose: 10.0 mg/kg/injection, schedule: Q01DX009 (ip), vehicle: saline with Tween-80 100 % of control | dose: 20.0 mg/kg/injection, schedule: Q01DX009 (ip), vehicle: saline with Tween-80 96 % of control | dose: 40.0 mg/kg/injection, schedule: Q01DX009 (ip), vehicle: saline with Tween-80 94 % of control | dose: 75.0 mg/kg/injection, schedule: Q01DX001 (ip), vehicle: other 96 % of control

Cc1c[nH]c(=O)cn1
inactive: dose: 100.0 mg/kg/injection, schedule: Q01DX009 (ip), vehicle: saline 97 % of control | [1] 94 % of control | dose: 200.0 mg/kg/injection, schedule: Q01DX009 (ip), vehicle: saline 90 % of control | [2] 104 % of control | dose: 400.0 mg/kg/injection, schedule: Q01DX009 (ip), vehicle: saline 93 % of control | dose: 400.0 mg/kg/injection, schedule: Q04DX003 (ip), vehicle: saline 104 % of control

Cc1ccc(S(=O)(=O)N/N=C/C(Br)=C(/Br)C(=O)O)cc1
inactive: dose: 6.25 mg/kg/injection, schedule: Q01DX009 (ip), vehicle: Klucel (hydroxypropylcellulose) (HPC) 106 % of control | dose: 12.5 mg/kg/injection, schedule: Q01DX009 (ip), vehicle: Klucel (hydroxypropylcellulose) (HPC) 109 % of control | dose: 25.0 mg/kg/injection, schedule: Q01DX009 (ip), vehicle: Klucel (hydroxypropylcellulose) (HPC) 111 % of control | [3] 124 % of control

CCOc1ccc(N)c(S)c1
inactive: dose: 13.3 mg/kg/injection, schedule: Q01DX Z (ip), vehicle: methylcellulose (MC) 105 % of control | dose: 20.0 mg/kg/injection, schedule: Q01DX Z (ip), vehicle: methylcellulose (MC) 97 % of control | dose: 30.0 mg/kg/injection, schedule: Q01DX Z (ip), vehicle: methylcellulose (MC) 95 % of control

Cc1ccc(NC(=O)Nc2ccc(C)cc2C)cc1
inactive: [4] 90 % of control | [5] 98 % of control | [6] 92 % of control

Nc1c[nH]c(=S)s1
inactive: dose: 100.0 mg/kg/injection, schedule: Q01DX001 (ip), vehicle: Klucel (hydroxypropylcellulose) (HPC) 94 % of control | dose: 200.0 mg/kg/injection, schedule: Q01DX001 (ip), vehicle: Klucel (hydroxypropylcellulose) (HPC) 99 % of control

Nc1ccc2scnc2c1
inactive: [7] 98 % of control | [8] 98 % of control | [9] 92 % of control

CCCCCCCCCCCCCCCc1cc(=O)n(C)n1C
inactive: [10] 93 % of control | [11] 94 % of control

CCC1C(=O)OCc2c1cc(C(=O)OC)n(C)c2=O (stereo not given)
inactive: dose: 25.0 mg/kg/injection, schedule: Q01DX001 (ip), vehicle: other 111 % of control | dose: 50.0 mg/kg/injection, schedule: Q01DX001 (ip), vehicle: other 108 % of control | dose: 100.0 mg/kg/injection, schedule: Q01DX001 (ip), vehicle: other 93 % of control | dose: 200.0 mg/kg/injection, schedule: Q01DX001 (ip), vehicle: other 93 % of control

C1CCC(C2CCC(C3CCCC3)C2)C1 (stereo not given)
inactive: dose: 100.0 mg/kg/injection, schedule: Q04DX002 (ip), vehicle: saline with Tween-80 91 % of control | dose: 200.0 mg/kg/injection, schedule: Q04DX002 (ip), vehicle: saline with Tween-80 94 % of control | dose: 400.0 mg/kg/injection, schedule: Q04DX002 (ip), vehicle: saline with Tween-80 91 % of control

[O-][n+]1ccccc1CCl
inactive: [12] 98 % of control | [13] 100 % of control

c1ccc(Sc2ncnc3nc[nH]c23)nc1
inactive: dose: 267.0 mg/kg/injection, schedule: Q01DX001 (ip), vehicle: saline with Tween-80 110 % of control

COc1cc(CC(=O)O)ccc1OCc1ccccc1
inactive: [7] 101 % of control | [8] 101 % of control | [9] 116 % of control

O=NN(CCCl)C(=O)Nc1ccc2c3c(cccc13)-c1ccccc1-2
inactive: dose: 118.0 mg/kg/injection, schedule: Q01DX009 (ip), vehicle: carboxymethylcellulose (CMC) 111 % of control | dose: 177.0 mg/kg/injection, schedule: Q01DX009 (ip), vehicle: carboxymethylcellulose (CMC) 119 % of control | dose: 266.0 mg/kg/injection, schedule: Q01DX009 (ip), vehicle: carboxymethylcellulose (CMC) 113 % of control | dose: 600.0 mg/kg/injection, schedule: Q01DX001 (ip), vehicle: carboxymethylcellulose (CMC) 117 % of control | dose: 600.0 mg/kg/injection, schedule: Q01DX009 (ip), vehicle: carboxymethylcellulose (CMC) 98 % of control

CC1(C)CCC2=C(O1)C(=O)c1ccccc1C2=O
inactive: [14] 102 % of control | [15] 104 % of control | dose: 400.0 mg/kg/injection, schedule: Q01DX001 (ip), vehicle: saline with Tween-80 94 % of control

CCN1C(=O)c2ccccc2C1=O
inactive: [3] 107 % of control | [13] 96 % of control | dose: 100.0 mg/kg/injection, schedule: Q01DX009 (ip), vehicle: Klucel (hydroxypropylcellulose) (HPC) 94 % of control | [16] 98 % of control | dose: 200.0 mg/kg/injection, schedule: Q01DX009 (ip), vehicle: Klucel (hydroxypropylcellulose) (HPC) 89 % of control | [17] 88 % of control

COC(=O)C(N=O)C(=O)OC
inactive: [13] 104 % of control | [16] 109 % of control | [17] 106 % of control

CCC(C(=O)OC)C1CCN(C)C(=O)C12CO2 (stereo not given)
inactive: dose: 25.0 mg/kg/injection, schedule: Q01DX001 (ip), vehicle: saline 93 % of control | dose: 25.0 mg/kg/injection, schedule: Q04DX003 (ip), vehicle: saline 95 % of control | dose: 25.0 mg/kg/injection, schedule: Q04DX003 (oral), vehicle: saline 100 % of control | [12] 104 % of control | dose: 50.0 mg/kg/injection, schedule: Q04DX003 (ip), vehicle: saline 95 % of control | dose: 50.0 mg/kg/injection, schedule: Q04DX003 (oral), vehicle: saline 98 % of control | [13] 97 % of control | [1] 97 % of control | dose: 100.0 mg/kg/injection, schedule: Q04DX003 (oral), vehicle: saline 96 % of control | [16] 103 % of control | [2] 97 % of control | dose: 200.0 mg/kg/injection, schedule: Q04DX003 (oral), vehicle: saline 107 % of control

COc1ccc(OC)c2c(=O)cc(C)[nH]c12
inactive: [13] 100 % of control | [16] 92 % of control | [17] 102 % of control

COc1cc(C)ccc1I
inactive: dose: 50.0 mg/kg/injection, schedule: Q01DX001 (ip), vehicle: saline with Tween-80 100 % of control | [14] 100 % of control | [15] 100 % of control

O=C(Nc1ccc(Cl)c(Cl)c1)O/N=C/c1ccccn1
inactive: [18] 96 % of control | [7] 91 % of control and 92 % of control | [10] 95 % of control | [11] 90 % of control | [9] 91 % of control | [19] 91 % of control

S=c1nc[nH]c2c1ncn2CCc1ccccc1
inactive: dose: 50.0 mg/kg/injection, schedule: Q01DX001 (ip), vehicle: carboxymethylcellulose (CMC) 115 % of control | [4] 101 % of control | [5] 112 % of control | [6] 95 % of control

CC(=O)N(c1ccccn1)c1ccccn1
inactive: [13] 106 % of control | [1] 97 % of control | [16] 104 % of control | [2] 105 % of control

c1ccc2c(c1)OC1(CCSCC1)O2
inactive: [10] 98 % of control | [11] 95 % of control | [19] 97 % of control

CCOC(=O)CSc1nc2nc(Cl)c(Cl)nc2[nH]1
inactive: dose: 25.0 mg/kg/injection, schedule: Q01DX009 (ip), vehicle: saline with Tween-80 104 % of control | [18] 98 % of control | [7] 105 % of control | [8] 96 % of control

CC(=O)Nc1ccc(NC(C)=O)c2c1C(=O)c1ccccc1C2=O
inactive: [7] 94 % of control | [10] 119 % of control | [8] 96 % of control | [11] 112 % of control | [9] 91 % of control | [19] 93 % of control
